According to US7402591B2, “Analgesic compositions containing buprenorphine” (Reckitt Benckiser Healthcare (UK) Limited, priority 1999, dated 2008):

System: thermal nociceptive threshold (hindpaw withdrawal latency) in rats with peripheral mononeuropathy
Test: Hargreaves paw withdrawal (plantar) test in rats with sciatic nerve ligation neuropathy
Assay type: in vivo, rat
Description: The operator positions the I.R. Generator directly beneath the hind paw of the rat and activates both the I.R. Source and a reaction time counter. When the rat feels pain and withdraws its paw, the I.R. Generator is automatically switched off and the timer stops, determining the withdrawal latency.
The testing was carried out on the eighth day following the operative procedure.
In order to determine a baseline for comparison purposes, rats were subjected to the Hargreaves paw withdrawal test before the subcutaneous injection of the various drugs or drug combinations being tested. The rats were then injected subcutaneously with the particular drug or drug combination being tested and the percentage change in time for the rat to withdraw its paw from the thermal stimulation, in comparison with the baseline, was recorded as a percentage in paw withdrawal latency. […]
After 8 days, thermal nociceptive threshold, as determined by hindpaw withdrawal latency, was measured using a plantar test (Ugo Basile, Comero, Italy). […] This initiated a timing circuit which measured the time interval between the application of the light beam and the withdrawal of the hind paw. […]
Paw withdrawal latency was determined before injection and at different times after injection. […]

## C=CCN1CC[C@]23c4c5ccc(O)c4O[C@H]2C(=O)CC[C@@]3(O)[C@H]1C5 [naloxone, 1-N-allyl-14-hydroxynorhydromorphinone]
Example 1, FIG. 1, low dose naloxone, weight ratios 20:1 and 15:1, subcutaneous, rats n=3
  potentiation of sub-clinical doses of buprenorphine: can be clearly seen
Example 2, FIG. 2, buprenorphine 2.5 μg/kg co-administered subcutaneously at weight ratios 5:1 to 30:1, rats n=6
  potentiation of the sub-clinical doses of buprenorphine: can be clearly seen
